Assay results: patent US20190105367A1, “ANTIMICROBIAL 4-OXOQUINOLIZINES” (Emergent Product Development Gaithersburg Inc., priority 2011, published 2019)
Values after ≈ are worked out from the molar mass of the structure shown. Read-outs that look alike come from different tables or passages of the source.

Tests used:
A. baumannii J2 = experiment: MIC without and with sub-inhibitory polymyxin B (Example 4); format: cell-based, Acinetobacter baumannii; conditions: for MIC without PB/MIC + PB: A. baumannii J2; for MIC: Acinetobacter baumannii
A. baumannii A472 [1] = experiment: Preliminary MBC without and with sub-inhibitory polymyxin B (Example 4); format: cell-based, Acinetobacter baumannii; conditions: Acinetobacter baumannii, preliminary MBC
A. baumannii A390 [2] = experiment: MIC without and with sub-inhibitory polymyxin B (Example 4); format: cell-based, Acinetobacter baumannii; conditions: +0.06 μg/ml PB, 2nd experiment
A. baumannii NCTC 13301 [3] = experiment: as above; format: cell-based, Acinetobacter baumannii
A. baumannii A14 [4] = experiment: Preliminary MBC without and with sub-inhibitory polymyxin B (Example 4); format: cell-based, Acinetobacter baumannii; conditions: A. baumannii A14, +0.06 μg/ml PB, 2nd experiment
Summary of the method: (§1)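 Bactericidal endpoint scored visually on plates incubated at 37° C (18-20 hours): the lowest concentration where growth fell about 90% versus the positive control, generally leaving one colony or none.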

A. baumannii A473 [5] = experiment: as above; format: cell-based, Acinetobacter baumannii; conditions: A. baumannii A473, +0.06 μg/ml PB, 2nd experiment
Summary of the method: as §1

A. baumannii NCTC 13301 [6] = experiment: as above; format: cell-based, Acinetobacter baumannii; conditions: Acinetobacter baumannii
Summary of the method: as §1

A. baumannii A390 [7] = experiment: as above; format: cell-based, Acinetobacter baumannii; conditions: Acinetobacter baumannii, A390, A. baumannii A390, +0.06 μg/ml PB, 2nd experiment
Summary of the method: as §1

A. baumannii A401 [8] = experiment: MIC without and with sub-inhibitory polymyxin B (Example 4); format: cell-based, Acinetobacter baumannii; conditions: A baumannii A 401; ratio, PB 0.06 μg/ml; 1st experiment
A. baumannii A329 [9] = experiment: as above; format: cell-based, Acinetobacter baumannii; conditions: A. baumannii A329; +0.06 μg/ml PB; 2nd experiment
A. baumannii A489 [10] = experiment: as above; format: cell-based, Acinetobacter baumannii; conditions: for MIC without PB/MIC + PB: A. baumannii A489; for MIC: Acinetobacter baumannii
A. baumannii A401 [11] = experiment: Preliminary MBC without and with sub-inhibitory polymyxin B (Example 4); format: cell-based, Acinetobacter baumannii; conditions: Acinetobacter baumannii
A. baumannii A473 [12] = experiment: MIC without and with sub-inhibitory polymyxin B (Example 4); format: cell-based, Acinetobacter baumannii; conditions: A. baumannii A473; +0.06 μg/ml PB; 2nd experiment
A. baumannii A472 [13] = experiment: as above; format: cell-based, Acinetobacter baumannii; conditions: for MIC: Acinetobacter baumannii
A. baumannii A387 [14] = experiment: as above; format: cell-based, Acinetobacter baumannii; conditions: A. baumannii A387
[15] = system: Acinetobacter sp. (H064200250); experiment: as above; format: cell-based
[16] = system: strains of A. baumannii and one strain of Acinetobacter sp.; experiment: MIC with sub-inhibitory concentrations (0.25x MIC) of polymyxin B, panel of Acinetobacter strains (Example 4); format: cell-based
A. baumannii A329 [17] = experiment: Preliminary MBC without and with sub-inhibitory polymyxin B (Example 4); format: cell-based, Acinetobacter baumannii; conditions: A. baumannii A329, +0.06 μg/ml PB, 2nd experiment
A. baumannii A14 [18] = experiment: MIC without and with sub-inhibitory polymyxin B (Example 4); format: cell-based, Acinetobacter baumannii; conditions: A. baumannii A14; +0.06 μg/ml PB; 2nd experiment
A. baumannii NCTC 13301 [19] = experiment: as above; format: cell-based, Acinetobacter baumannii; conditions: +[…] PB, 2nd experiment
A. baumannii ATCC 19606 = experiment: as above; format: cell-based, Acinetobacter baumannii; conditions: A. baumannii ATCC 19606
A. baumannii A489 [20] = experiment: Preliminary MBC without and with sub-inhibitory polymyxin B (Example 4); format: cell-based, Acinetobacter baumannii; conditions: Acinetobacter baumannii, preliminary MBC
A. baumannii A387 [21] = experiment: as above; format: cell-based, Acinetobacter baumannii; conditions: A. baumannii A387, +0.06 μg/ml PB, 2nd experiment
[22] = ratio, PB 0.06 μg/ml, 1st experiment

## COc1c(N2C[C@@H]3CCCN[C@@H]3C2)c(F)cc2c(=O)c(C(=O)O)cn(C3CC3)c12 [Moxifloxacin]
A. baumannii J2; +[…] PB, 2nd experiment
  MIC without PB/MIC + PB: 4
A. baumannii J2; ratio, PB […], 1st experiment
  MIC without PB/MIC + PB: 4
A. baumannii J2; J2, A. baumannii J2, +[…] PB, 2nd experiment, read-out: MIC
  MIC: 8 µg/mL (≈ 19.9 µM)
A. baumannii J2; J2, read-out: MIC +[…] PB, A. baumannii J2, +[…] polymyxin B, 1st experiment
  MIC: 8 µg/mL (≈ 19.9 µM)
A. baumannii A472 [1]; A472, A. baumannii A472, +[…] PB, 2nd experiment
  MBC: 4 µg/mL (≈ 9.96 µM)
A. baumannii A472 [1]; A472, read-out: MBC +[…] PB, A. baumannii A472, +[…] polymyxin B, 1st experiment
  MBC: 4 µg/mL (≈ 9.96 µM)
A. baumannii A390 [2]; A. baumannii A390
  MIC without PB/MIC + PB: 2
A. baumannii A390 [2]; Acinetobacter baumannii, A390, A. baumannii A390, read-out: MIC
  MIC: 8 µg/mL (≈ 19.9 µM)
A. baumannii NCTC 13301 [3]; A. baumannii NCTC 13301, ratio, PB […], 1st experiment
  MIC without PB/MIC + PB: 1
A. baumannii NCTC 13301 [3]; Acinetobacter baumannii, NCTC13301, read-out: MIC +[…] PB
  MIC: 128 µg/mL (≈ 319 µM)
A. baumannii A14 [4]
  MBC: 16 µg/mL (≈ 39.9 µM)
A. baumannii A473 [5]
  MBC: 8 µg/mL (≈ 19.9 µM)
A. baumannii NCTC 13301 [6]; NCTC13301, A. baumannii NCTC 13301, +[…] PB, preliminary MBC, 2nd experiment
  MBC: 8 µg/mL (≈ 19.9 µM)
A. baumannii NCTC 13301 [6]; NCTC13301, read-out: MBC +[…] PB
  MBC: 128 µg/mL (≈ 319 µM)
A. baumannii A390 [7]
  MBC: 8 µg/mL (≈ 19.9 µM)
A. baumannii A401 [8]
  MIC without PB/MIC + PB: 2
A. baumannii A329 [9]
  MIC without PB/MIC + PB: 1
A. baumannii A489 [10]; +[…] PB, 2nd experiment
  MIC without PB/MIC + PB: 4
A. baumannii A489 [10]; ratio, PB […], 1st experiment
  MIC without PB/MIC + PB: 4
A. baumannii A489 [10]; A489, A. baumannii A489, +[…] PB, 2nd experiment, read-out: MIC
  MIC: 4 µg/mL (≈ 9.96 µM)
A. baumannii A489 [10]; A489, read-out: MIC +[…] PB, A. baumannii A489, +[…] polymyxin B, 1st experiment
  MIC: 4 µg/mL (≈ 9.96 µM)
A. baumannii A401 [11]; A401, A baumannii A 401, +0.06 μg/ml PB, 2nd experiment
  MBC: 8 µg/mL (≈ 19.9 µM)
A. baumannii A401 [11]; A401, read-out: MBC +0.06 μg/ml PB, A baumannii A 401, +0.06 μg/ml polymyxin B, 1st experiment
  MBC: 8 µg/mL
A. baumannii A473 [12]
  MIC without PB/MIC + PB: 1
A. baumannii A472 [13]; A. baumannii A472, ratio, PB […], 1st experiment
  MIC without PB/MIC + PB: 0.5
A. baumannii A472 [13]; A472, A. baumannii A472, +[…] PB, 2nd experiment, read-out: MIC
  MIC: 4 µg/mL (≈ 9.96 µM)
A. baumannii A472 [13]; A472, read-out: MIC +[…] PB, A. baumannii A472, +[…] polymyxin B, 1st experiment
  MIC: 32 µg/mL (≈ 79.7 µM)
A. baumannii A387 [14]; +0.06 μg/ml PB, 2nd experiment
  MIC without PB/MIC + PB: 1
A. baumannii A387 [14]; [22]
  MIC without PB/MIC + PB: 1
[15]; Acinetobacter spp. H064200250 (OXA51), +[…] PB, 2nd experiment
  MIC without PB/MIC + PB: 1
[15]; Acinetobacter spp. H064200250, ratio, PB […], 1st experiment
  MIC without PB/MIC + PB: 1
[16]; 1st experiment
  Range ratios MIC without PB/MIC with PB Oct. 1, 2008 n = 8: 0.5-4
[16]; 1st experiment, […] polymyxin B, ATCC 19606, A329, A390 and A473 not taken
  MIC range with PB (0.25x MIC) Oct. 1, 2008 n = 8: 4 to 128 µg/mL
[16]; 2nd experiment
  Range ratios MIC without PB/MIC with PB Oct. 14, 2008 n = 11: 1-8
[16]; 2nd experiment, 0.06 μg/ml polymyxin B, all strains except the ATCC strain
  MIC range with PB (0.25x MIC) Oct. 14, 2008 n = 11: 4 to 32 µg/mL
A. baumannii A329 [17]
  MBC: 32 µg/mL (≈ 79.7 µM)
A. baumannii A14 [18]
  MIC: 16 µg/mL (≈ 39.9 µM)
  MIC without PB/MIC + PB: 2
A. baumannii NCTC 13301 [19]; A. baumannii NCTC 13301
  MIC without PB/MIC + PB: 8
A. baumannii NCTC 13301 [19]; Acinetobacter baumannii, NCTC13301, A. baumannii NCTC 13301, read-out: MIC
  MIC: 8 µg/mL (≈ 19.9 µM)
A. baumannii ATCC 19606; +0.06 μg/ml PB, 2nd experiment
  MIC without PB/MIC + PB: 2
A. baumannii ATCC 19606; [22]
  MIC without PB/MIC + PB: 1
A. baumannii A489 [20]; A489, A. baumannii A489, +[…] PB, 2nd experiment
  MBC: 4 µg/mL (≈ 9.96 µM)
A. baumannii A489 [20]; A489, read-out: MBC +[…] PB, A. baumannii A489, +[…] polymyxin B, 1st experiment
  MBC: 4 µg/mL (≈ 9.96 µM)
A. baumannii A387 [21]
  MBC: 8 µg/mL (≈ 19.9 µM)
